Laboratory results reported in US20240148821A1, “PHARMACEUTICAL USE OF CYCLIC PEPTIDE COMPOUND” (CHUGAI SEIYAKU KABUSHIKI KAISHA, priority 2021, published 2024).
Numbered stars: 1 amine (or outer) side, 2 acyl side, 3 side chain; on linkers, the order of the positions; unused ones are H or OH. Bridge positions count the residues as written; N and C are the ends. Square brackets hold non-standard residues; d marks the D form. Peptide text beside a SMILES is read from it. * marks the point of attachment. hPhe(3-Cl-4-CF3) = N[C@@H](CCc1ccc(C(F)(F)F)c(Cl)c1)C(=O)O; hPhe(3-F,4-CF3) = N[C@@H](CCc1ccc(C(F)(F)F)c(F)c1)C(=O)O; X37 = CC(C)(C)NC(=O)COC[C@H](CC(=O)[*:1])N[*:2]; NMePhe(3-F) = CN[C@@H](Cc1cccc(F)c1)C(=O)O; hPhe(3-Cl) = N[C@@H](CCc1cccc(Cl)c1)C(=O)O; NMeGly(cPent) = CN[C@H](C(=O)O)C1CCCC1; NMeGly(cBu) = CN[C@H](C(=O)O)C1CCC1; NMeCha = CN[C@@H](CC1CCCCC1)C(=O)O; NMeChg = CN[C@H](C(=O)O)C1CCCCC1; NMeD = CN[C@@H](CC(=O)O)C(=O)O; NMeL = CN[C@@H](CC(C)C)C(=O)O; NMeV = CN[C@H](C(=O)O)C(C)C; d(β3hA) = C[C@@H](N)CC(=O)O; NMeS = CN[C@@H](CO)C(=O)O; hSer = N[C@@H](CCO)C(=O)O; Morpholide = C1CN(*)CCO1; NMeA = CN[C@@H](C)C(=O)O; NMeAib = CNC(C)(C)C(=O)O; Piperidide = C1CCN(*)CC1; Ac5c = NC1(C(=O)O)CCCC1; Aze = O=C(O)[C@@H]1CCN1; Nleu = CC(C)CNCC(=O)O; X113 = Fc1cncc(C*)c1; Sar = CNCC(=O)O; Propyl = CCC*

These molecules were tested on Human pancreatic cancer cell line AsPC-1 (G12D mutation Kras) (assay: AsPC-1 cell growth inhibition (AsPC-1 CGI)). Settings: read-out: AsPC-1 cell growth inhibition, 50% growth inhibitory concentration (IC50 value); 96 hours, CellTiter-Glo, values classified in ranges.
Format: cell-based
Procedure: Test compounds were serially dilated with dimethyl sulfoxide, and 200 nL was then dispensed to a U-bottom 96-well plate using Labcyte Echo. […] The cell suspension was dispensed to a. plate containing a test compound at 100 μL per well and incubated at 37° C. in a 5% carbon dioxide gas incubator. 96 hours later, 80 μL of CellTiter-Glo (Promega) was added to each well and fluorescence was measured.

`CC[C@H](C)[C@@H]1NC(=O)[C@H](CC(C)C)N(C)C(=O)C[C@@H](C(=O)N2CCCCC2)N(C)C(=O)[C@H](C2CCCCC2)N(C)C(=O)C2(CCCC2)NC(=O)[C@@H]2CCCN2C(=O)[C@H](CCc2ccc(C(F)(F)F)c(Cl)c2)NC(=O)CN(C)C(=O)[C@H](C2CCC2)N(C)C(=O)CN(C)C(=O)CN(C)C1=O` [Compound 936] ([NMeL]I[Sar][Sar][NMeGly(cBu)][Sar][hPhe(3-Cl-4-CF3)]P[Ac5c][NMeChg][NMeD]-Piperidide; lactam N-11) and `COCC[C@@H]1NC(=O)[C@H](CC(C)C)N(C)C(=O)C[C@@H](C(=O)N2CCCCC2)N(C)C(=O)[C@H](C2CCCCC2)N(C)C(=O)C2(CCCC2)NC(=O)[C@@H]2CCCN2C(=O)[C@H](CCc2ccc(C(F)(F)F)c(Cl)c2)NC(=O)CN(C)C(=O)[C@H](CC2CCCCC2)N(C)C(=O)CN(C)C(=O)CN(C)C1=O` [Compound 941] ([NMeL][hSer](Me)[Sar][Sar][NMeCha][Sar][hPhe(3-Cl-4-CF3)]P[Ac5c][NMeChg][NMeD]-Piperidide; lactam N-11) cannot be ordered by IC50: greater than 500 nM for the first, greater than 500 nM for the second.

`CC[C@H](C)[C@@H]1NC(=O)[C@H](C)N(C)C(=O)C[C@@H](C(=O)N2CCCCC2)N(C)C(=O)[C@H](C(C)C)N(C)C(=O)C2(CCCC2)NC(=O)[C@H](Cc2cccc(F)c2)N(C)C(=O)[C@H](CCc2ccc(C(F)(F)F)c(Cl)c2)NC(=O)CN(C)C(=O)[C@H](CC2CCCCC2)N(C)C(=O)CN(C)C(=O)CN(C)C1=O` [Compound 945] ([NMeA]I[Sar][Sar][NMeCha][Sar][hPhe(3-Cl-4-CF3)][NMePhe(3-F)][Ac5c][NMeV][NMeD]-Piperidide; lactam N-11) and `CC[C@H](C)[C@@H]1NC(=O)[C@H](CC(C)C)N(C)C(=O)C[C@@H](C(=O)N2CCCCC2)N(C)C(=O)[C@H](C2CCCCC2)N(C)C(=O)C2(CCCC2)NC(=O)[C@H](COCc2cncc(F)c2)N(C)C(=O)[C@H](CCc2ccc(C(F)(F)F)c(Cl)c2)NC(=O)CN(C)C(=O)[C@H](CC2CCCCC2)N(C)C(=O)CN(C)C(=O)CN(C)C1=O` [Compound 950] ([NMeL]I[Sar][Sar][NMeCha][Sar][hPhe(3-Cl-4-CF3)][NMeS](X113)[Ac5c][NMeChg][NMeD]-Piperidide; lactam N-11) cannot be ordered by IC50: greater than 500 nM for the first, greater than 500 nM for the second.

Going from `CC[C@H](C)[C@@H]1NC(=O)[C@H](C)N(C)C(=O)C[C@@H](C(=O)N2CCCCC2)N(C)C(=O)[C@H](C2CCCCC2)N(C)C(=O)C2(CCCC2)NC(=O)[C@@H]2CCCN2C(=O)[C@H](CCc2cccc(Cl)c2)NC(=O)CN(C)C(=O)[C@H](CC2CCCCC2)N(C)C(=O)CN(C)C(=O)CN(C)C1=O` [Compound 954] ([NMeA]I[Sar][Sar][NMeCha][Sar][hPhe(3-Cl)]P[Ac5c][NMeChg][NMeD]-Piperidide; lactam N-11) to `CCCOC[C@H]1C(=O)N(C)CC(=O)N[C@@H](CCc2ccc(C(F)(F)F)c(Cl)c2)C(=O)N2CCC[C@H]2C(=O)NC2(CCCC2)C(=O)N(C)[C@@H](C2CCCC2)C(=O)N(C)[C@H](C(=O)N2CCOCC2)CC(=O)N(C)[C@@H](CC(C)C)C(=O)N[C@@H]([C@@H](C)CC)C(=O)N(C)[C@@H](C)C(=O)N2CC[C@H]2C(=O)N1C` [Compound 974] ([NMeL]I[NMeA][Aze][NMeS](Propyl)[Sar][hPhe(3-Cl-4-CF3)]P[Ac5c][NMeGly(cPent)][NMeD]-Morpholide; lactam N-11), the IC50 falls from greater than 500 nM to no more than 20 nM. The second is the more potent here.

`CC[C@H](C)[C@@H]1NC(=O)[C@H](CC(C)C)N(C)C(=O)C[C@@H](COCC(=O)NC(C)(C)C)NC(=O)[C@H](C(C)C)N(C)C(=O)C2(CCCC2)NC(=O)[C@@H]2CCCN2C(=O)[C@H](CCc2ccc(C(F)(F)F)c(Cl)c2)NC(=O)CN(C)C(=O)[C@H](CC2CCCCC2)N(C)C(=O)CN(C)C(=O)CN(C)C1=O` [Compound 955] ([NMeL]I[Sar][Sar][NMeCha][Sar][hPhe(3-Cl-4-CF3)]P[Ac5c][NMeV]; linker N-C via X37) and `CC[C@H](C)[C@@H]1NC(=O)[C@H](CC(C)C)N(C)C(=O)C[C@@H](C)NC(=O)[C@H](C(C)C)N(C)C(=O)C2(CCCC2)NC(=O)[C@@H]2CCCN2C(=O)[C@H](CCc2ccc(C(F)(F)F)c(Cl)c2)NC(=O)CN(C)C(=O)[C@H](CC2CCCCC2)N(C)C(=O)CN(C)C(=O)CN(CC(C)C)C1=O` [Compound 970] (cyclo([Ac5c][NMeV][d(β3hA)][NMeL]I[Nleu][Sar][NMeCha][Sar][hPhe(3-Cl-4-CF3)]P)) cannot be ordered by IC50: greater than 500 nM for the first, greater than 500 nM for the second.

With `CC[C@H](C)[C@@H]1NC(=O)[C@H](CC(C)C)N(C)C(=O)C[C@@H](C(=O)N2CCCCC2)N(C)C(=O)[C@H](CC(C)C)NC(=O)C(C)(C)N(C)C(=O)[C@H](CC(C)C)NC(=O)[C@H](CCc2ccc(C(F)(F)F)c(F)c2)NC(=O)CN(C)C(=O)[C@H](CC2CCCCC2)N(C)C(=O)CN(C)C(=O)CN(C)C1=O` [Compound 969] ([NMeL]I[Sar][Sar][NMeCha][Sar][hPhe(3-F,4-CF3)]L[NMeAib]L[NMeD]-Piperidide; lactam N-11) the IC50 was greater than 500 nM.
